Data set [1] addresses T1, Mu-type opioid receptor (Homo sapiens, UniProt P35372). Description: Agonist activity at human MOP expressed in HEK293 cells coexpressing GloSensor-20F assessed as inhibition of forskolin-induced cAMP accumulation. It is filed as functional, cell-based. In general terms: Changes in cAMP serve as a functional read-out for many G protein-coupled receptors.
Data set [2] deals with T1, Mu-type opioid receptor. Description: Agonist activity at human MOP expressed in HEK293 cells coexpressing GloSensor-20F assessed as inhibition of forskolin-induced cAMP accumulation relative to control. The class given is functional, cell-based. The conditions noted are these: filed as agonist.
Data set [3] addresses T1, Mu-type opioid receptor. The data set can be described thus: Agonist activity at human Rluc8-tagged MOP expressed in HEK293 cells coexpressing eYFP-tagged beta-arrestin-2 assessed as beta-arrestin-2 recruitment incubated for 5 mins by luminometer analysis. The class given is functional, cell-based. The conditions noted are these: hek293. Background: Arrestin recruitment assays detect the binding of arrestin to an activated receptor.

Data set [4] deals with T2, Neuropeptide FF receptor 1 (Homo sapiens, UniProt Q9GZQ6). Description: Displacement of [125I]-1DMeNPFF from human NPFFR1 expressed in CHO cell membrane at 0.5 uM incubated for 1 hr by Topcount counting method relative to control. It is filed as cell membranes. A general note: Displacement assays read how much labelled ligand stays bound in the presence of the test substance.
T2 sequence (Q9GZQ6 whole entry): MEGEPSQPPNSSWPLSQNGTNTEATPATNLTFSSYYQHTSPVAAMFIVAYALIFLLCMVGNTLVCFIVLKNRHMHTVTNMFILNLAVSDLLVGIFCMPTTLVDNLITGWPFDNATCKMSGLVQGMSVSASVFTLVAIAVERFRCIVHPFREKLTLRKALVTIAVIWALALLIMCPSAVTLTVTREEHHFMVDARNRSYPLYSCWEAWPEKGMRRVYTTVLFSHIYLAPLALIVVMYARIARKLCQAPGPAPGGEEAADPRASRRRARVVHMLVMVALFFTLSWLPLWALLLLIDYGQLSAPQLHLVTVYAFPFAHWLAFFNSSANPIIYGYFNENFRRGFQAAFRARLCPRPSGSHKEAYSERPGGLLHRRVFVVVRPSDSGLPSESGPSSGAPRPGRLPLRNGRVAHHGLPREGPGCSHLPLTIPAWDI

For data set [5], the target named is T2, Neuropeptide FF receptor 1. The data set can be described thus: Antagonist activity at human NPFFR1 expressed in CHO cell membrane assessed as inhibition of NPVF induced cAMP response at 5 uM incubated for 1 hr by Topcount counting method relative to control. It is filed as functional, cell membranes. Also noted: scale not given: the % may be the effect or the level left. The conditions noted are these: filed as antagonist.

Data set [6] deals with T3, Neuropeptide FF receptor 2 (Homo sapiens, UniProt Q9Y5X5). The data set can be described thus: Displacement of [125I]-1DMeNPFF from human NPFFR2 expressed in CHO cell membrane at 0.05 uM incubated for 1 hr by Topcount counting method relative to control. It is filed as cell membranes. The conditions noted are these: filed as antagonist.
T3 sequence (Q9Y5X5 whole entry): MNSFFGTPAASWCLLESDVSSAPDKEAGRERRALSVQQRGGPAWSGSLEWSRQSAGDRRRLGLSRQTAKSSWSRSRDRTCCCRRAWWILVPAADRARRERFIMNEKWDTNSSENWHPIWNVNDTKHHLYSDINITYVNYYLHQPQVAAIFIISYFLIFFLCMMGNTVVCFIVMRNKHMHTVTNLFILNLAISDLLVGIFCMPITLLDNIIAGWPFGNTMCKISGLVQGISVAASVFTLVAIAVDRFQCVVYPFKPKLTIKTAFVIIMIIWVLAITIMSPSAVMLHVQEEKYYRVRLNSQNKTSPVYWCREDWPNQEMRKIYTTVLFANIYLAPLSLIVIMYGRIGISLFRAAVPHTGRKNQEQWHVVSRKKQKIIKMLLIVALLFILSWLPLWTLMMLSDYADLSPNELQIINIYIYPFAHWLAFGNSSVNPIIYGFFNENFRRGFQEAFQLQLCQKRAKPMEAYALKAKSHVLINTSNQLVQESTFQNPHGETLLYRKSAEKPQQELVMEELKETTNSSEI
The target of data set [7] is T3, Neuropeptide FF receptor 2. Description: Antagonist activity at human NPFFR2 expressed in CHO cell membrane assessed as inhibition of NPVF induced cAMP response at 5 uM incubated for 1 hr by Topcount counting method relative to control. On the set-up: scale not given: the % may be the effect or the level left. The conditions noted are these: filed as antagonist. It is filed as functional, cell membranes.

Data set [8] has as its target T2, Neuropeptide FF receptor 1. Description: Displacement of [125I]-1DMeNPFF from human NPFFR1 expressed in CHO cell membrane incubated for 1 hr by Topcount counting method. The class given is cell membranes.
For data set [9], the target named is T2, Neuropeptide FF receptor 1. The data set can be described thus: Antagonist potency at human NPFFR1 expressed in CHO cell membrane assessed as inhibition of NPVF induced cAMP response incubated for 1 hr by Topcount counting method. Particulars: read-out: pA2 (converted). The class given is functional, cell membranes.
In data set [10] the target is T3, Neuropeptide FF receptor 2. Description: Displacement of [125I]-1DMeNPFF from human NPFFR2 expressed in CHO cell membrane incubated for 1 hr by Topcount counting method. It is filed as cell membranes.
Data set [11] addresses T3, Neuropeptide FF receptor 2. Description: Antagonist potency at human NPFFR2 expressed in CHO cell membrane assessed as inhibition of NPVF induced cAMP response incubated for 1 hr by Topcount counting method. Particulars: read-out: pA2 (converted). It is filed as functional, cell membranes.
The target of data set [12] is Delta-type opioid receptor (Homo sapiens) (UniProt P41143). Description: Agonist activity at human DOP expressed in HEK293 cells assessed as inhibition of forskolin-induced cAMP accumulation. The class given is functional, cell-based. Particulars: filed as agonist.
Sequence of Delta-type opioid receptor (Homo sapiens) (P41143 whole entry): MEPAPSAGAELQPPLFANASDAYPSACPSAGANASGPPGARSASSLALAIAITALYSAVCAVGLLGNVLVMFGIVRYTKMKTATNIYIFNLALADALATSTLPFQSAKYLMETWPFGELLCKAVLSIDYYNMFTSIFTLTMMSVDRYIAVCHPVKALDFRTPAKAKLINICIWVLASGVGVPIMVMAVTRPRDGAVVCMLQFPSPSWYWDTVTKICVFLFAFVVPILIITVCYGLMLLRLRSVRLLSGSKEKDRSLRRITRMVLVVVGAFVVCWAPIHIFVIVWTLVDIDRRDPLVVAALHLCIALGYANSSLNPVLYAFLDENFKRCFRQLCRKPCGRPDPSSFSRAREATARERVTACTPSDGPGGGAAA
Data set [13] addresses Kappa-type opioid receptor (Homo sapiens, UniProt P41145). Description: Partial agonist activity at human KOR expressed in HEK293 cells assessed as forskolin-induced cAMP accumulation in presence of IBMX. It is filed as functional, cell-based. The conditions noted are these: filed as partial agonist.
Data set [14] concerns the target Nociceptin receptor (Homo sapiens) (UniProt P41146). The data set can be described thus: Agonist activity at human NOR expressed in HEK293 cells assessed as forskolin-induced cAMP accumulation. The class given is functional, cell-based.
The target in data set [15] is T4, Prolactin-releasing peptide receptor (Homo sapiens) (UniProt P49683).
T4 sequence (whole entry): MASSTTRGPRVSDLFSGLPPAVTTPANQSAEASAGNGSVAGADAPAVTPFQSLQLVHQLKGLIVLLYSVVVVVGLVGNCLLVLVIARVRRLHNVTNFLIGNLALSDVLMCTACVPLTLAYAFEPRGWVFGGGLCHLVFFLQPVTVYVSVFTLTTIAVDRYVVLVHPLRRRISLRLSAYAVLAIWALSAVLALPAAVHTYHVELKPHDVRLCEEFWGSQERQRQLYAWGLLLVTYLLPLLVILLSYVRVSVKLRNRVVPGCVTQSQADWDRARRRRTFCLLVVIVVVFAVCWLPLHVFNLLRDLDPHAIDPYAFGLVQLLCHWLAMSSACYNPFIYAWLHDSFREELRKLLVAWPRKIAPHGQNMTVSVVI
The data set can be described thus: Agonist activity at human GPR10 expressed in CHO cells assessed as intracellular calcium release upto 10 uM by Fluo-4 AM dye based calcium mobilization assay. The class given is functional, cell-based.

Data set [16] addresses KiSS-1 receptor (Homo sapiens) (UniProt Q969F8). The data set can be described thus: Agonist activity at human GPR54 expressed in CHO cells assessed as intracellular calcium release upto 10 uM by Fluo-4 AM dye based calcium mobilization assay. It is filed as functional, cell-based.
In data set [17] the target is T5, Pyroglutamylated RF-amide peptide receptor (Homo sapiens) (UniProt Q96P65).
T5 sequence (whole entry): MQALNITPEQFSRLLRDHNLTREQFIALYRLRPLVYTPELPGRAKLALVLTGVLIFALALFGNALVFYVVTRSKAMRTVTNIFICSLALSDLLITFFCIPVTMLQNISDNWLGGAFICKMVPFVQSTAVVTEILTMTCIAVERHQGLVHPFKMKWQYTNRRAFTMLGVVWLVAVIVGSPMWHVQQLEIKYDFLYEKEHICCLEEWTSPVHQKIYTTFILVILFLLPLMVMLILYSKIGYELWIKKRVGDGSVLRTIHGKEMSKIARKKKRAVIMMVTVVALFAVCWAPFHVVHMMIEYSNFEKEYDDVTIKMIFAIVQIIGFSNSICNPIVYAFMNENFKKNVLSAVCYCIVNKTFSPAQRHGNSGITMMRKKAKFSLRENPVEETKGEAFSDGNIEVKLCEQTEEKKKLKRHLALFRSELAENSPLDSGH
Description: Agonist activity at human GPR103 expressed in CHO cells assessed as intracellular calcium release upto 10 uM by Fluo-4 AM dye based calcium mobilization assay. The class given is functional, cell-based.

For data set [18], the target named is T4, Prolactin-releasing peptide receptor (Homo sapiens). The data set can be described thus: Antagonist activity at human GPR10 expressed in CHO cells assessed as intracellular calcium release upto 10 uM by Fluo-4 AM dye based calcium mobilization assay. It is filed as functional, cell-based.
Data set [19] addresses KiSS-1 receptor (Homo sapiens) (UniProt Q969F8). Description: Antagonist activity at human GPR54 expressed in CHO cells assessed as intracellular calcium release upto 10 uM by Fluo-4 AM dye based calcium mobilization assay. The class given is functional, cell-based.
Data set [20] deals with T5, Pyroglutamylated RF-amide peptide receptor (Homo sapiens). Description: Antagonist activity at human GPR103 expressed in CHO cells assessed as intracellular calcium release upto 10 uM by Fluo-4 AM dye based calcium mobilization assay. It is filed as functional, cell-based.
The nature of data set [21]: Cmax in mouse at 10 mg/kg, sc measured upto 24 hrs by LC-MS/MS analysis. The class given is ADME, organism-based. The conditions noted are these: in vivo.
Data set [22] can be described thus: Tmax in mouse at 10 mg/kg, sc measured upto 24 hrs by LC-MS/MS analysis. It is filed as ADME, organism-based. Particulars: in vivo.
The nature of data set [23]: Half life in mouse at 10 mg/kg, sc measured upto 24 hrs by LC-MS/MS analysis. It is filed as ADME, organism-based. Particulars: in vivo.
A short description of data set [24]: Drug concentration in mouse plasma at 10 mg/kg, sc measured after 2 hrs by LC-MS/MS analysis. The class given is ADME, organism-based.
The nature of data set [25]: Drug metabolism in human plasma assessed as H-Dmt-D-Pro-OH formation measured upto 270 mins by LC-MS analysis. It is filed as ADME, cell-free. Particulars: 4.5 h.
The nature of data set [26]: Drug metabolism in human plasma assessed as H-Aba-betaAla-Bpa-Phe-NH2 formation measured upto 270 mins by LC-MS analysis. The class given is ADME, cell-free. Particulars: 4.5 h.
In data set [27] the test system is Mus musculus. Description: Antinociceptive activity in mouse at 2.5 to 10 mg/kg, sc measured after 6 hrs by tail immersion test. It is filed as functional, organism-based. The conditions noted are these: dose 2.5-10 mg/kg.
The subject of data set [28] is Mus musculus. The data set can be described thus: Antinociceptive activity in mouse at 10 mg/kg, sc administered daily and measured on day 8. It is filed as functional, organism-based.
In data set [29] the test system is Mus musculus. The data set can be described thus: Antinociceptive activity in mouse assessed as basal nociceptive threshold at 10 mg/kg, sc administered daily and measured on day 2 to 7. The class given is functional, organism-based.
The nature of data set [30]: Induction of naltrexone-precipitated withdrawal syndrome in sc dosed C57BL/6N mouse assessed as somatic signs administered for 8 days followed by naltrexone addition on day 9 after 2 hrs post last dose and measured after 30 mins. The class given is toxicity, organism-based. Particulars: in vivo, 216.5 h, time 12990 min.
Data set [31] is described as follows: Induction of naltrexone-precipitated withdrawal syndrome in sc dosed C57BL/6N mouse assessed as vegetative signs administered for 8 days followed by naltrexone addition on day 9 after 2 hrs post last dose and measured after 30 mins. It is filed as toxicity, organism-based. The conditions noted are these: in vivo, 216.5 h, time 12990 min.
A short description of data set [32]: Toxicity in sc dosed C57BL/6N mouse assessed as induction of respiratory depression by measuring decrease in pulmonary rate by plethysmography. It is filed as organism-based. Particulars: in vivo.

Each structure is given as a SMILES string. Calls of active or inactive are those of the source. Numbered stars: 1 amine (or outer) side, 2 acyl side, 3 side chain; on linkers, the order of the positions; unused ones are H or OH. Square brackets hold non-standard residues; d marks the D form. Peptide text beside a SMILES is read from it. Nva(5-(4-Bn-piperidin-1-yl)) = N[C@@H](CCCN1CCC(Cc2ccccc2)CC1)C(=O)O; X1 = O=C1[C@@H](N[*:1])Cc2ccccc2CN1CCC(=O)[*:2]; Dmt = Cc1cc(O)cc(C)c1C[C@H](N)C(=O)O

Consider two compounds from ChEMBL document CHEMBL5506024, “Multitarget μ-Opioid Receptor Agonists─Neuropeptide FF Receptor Antagonists Induce Potent Antinociception with Reduced Adverse Side Effects” (J Med Chem, 2024).

T1 sequence (P35372 whole entry): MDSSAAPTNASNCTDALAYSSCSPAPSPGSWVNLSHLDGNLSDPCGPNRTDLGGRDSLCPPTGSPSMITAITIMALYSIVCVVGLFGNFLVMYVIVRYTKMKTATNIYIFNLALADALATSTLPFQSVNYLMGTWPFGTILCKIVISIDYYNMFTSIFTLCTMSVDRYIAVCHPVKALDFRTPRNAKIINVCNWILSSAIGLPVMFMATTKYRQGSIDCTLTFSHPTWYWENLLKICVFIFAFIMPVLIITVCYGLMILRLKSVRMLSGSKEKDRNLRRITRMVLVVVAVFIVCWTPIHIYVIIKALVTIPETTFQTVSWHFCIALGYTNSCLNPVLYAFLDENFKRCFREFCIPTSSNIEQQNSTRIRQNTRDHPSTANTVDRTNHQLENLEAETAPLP
Sequence of KiSS-1 receptor (Homo sapiens) (Q969F8 whole entry): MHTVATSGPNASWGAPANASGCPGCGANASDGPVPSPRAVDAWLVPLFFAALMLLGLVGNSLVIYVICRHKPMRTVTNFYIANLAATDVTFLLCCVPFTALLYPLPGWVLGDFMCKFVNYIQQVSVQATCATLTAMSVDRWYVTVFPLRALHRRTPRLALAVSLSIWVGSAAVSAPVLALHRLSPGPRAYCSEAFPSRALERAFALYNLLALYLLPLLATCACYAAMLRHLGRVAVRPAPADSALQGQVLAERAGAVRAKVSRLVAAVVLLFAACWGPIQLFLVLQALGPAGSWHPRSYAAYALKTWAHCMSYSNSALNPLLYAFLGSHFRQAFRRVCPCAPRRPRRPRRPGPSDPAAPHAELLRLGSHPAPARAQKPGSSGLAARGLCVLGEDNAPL
Sequence of Kappa-type opioid receptor (P41145 whole entry): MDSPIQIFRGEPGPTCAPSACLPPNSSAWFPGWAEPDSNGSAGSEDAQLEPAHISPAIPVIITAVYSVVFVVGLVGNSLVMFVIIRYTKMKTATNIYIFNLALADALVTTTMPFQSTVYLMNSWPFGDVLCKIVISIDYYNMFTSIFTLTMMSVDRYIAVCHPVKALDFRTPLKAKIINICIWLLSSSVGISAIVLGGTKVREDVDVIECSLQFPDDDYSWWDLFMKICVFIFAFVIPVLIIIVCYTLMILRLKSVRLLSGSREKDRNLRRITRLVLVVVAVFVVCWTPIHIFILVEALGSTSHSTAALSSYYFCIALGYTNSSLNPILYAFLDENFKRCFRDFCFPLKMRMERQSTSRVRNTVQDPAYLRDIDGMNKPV
Sequence of Nociceptin receptor (Homo sapiens) (P41146 whole entry): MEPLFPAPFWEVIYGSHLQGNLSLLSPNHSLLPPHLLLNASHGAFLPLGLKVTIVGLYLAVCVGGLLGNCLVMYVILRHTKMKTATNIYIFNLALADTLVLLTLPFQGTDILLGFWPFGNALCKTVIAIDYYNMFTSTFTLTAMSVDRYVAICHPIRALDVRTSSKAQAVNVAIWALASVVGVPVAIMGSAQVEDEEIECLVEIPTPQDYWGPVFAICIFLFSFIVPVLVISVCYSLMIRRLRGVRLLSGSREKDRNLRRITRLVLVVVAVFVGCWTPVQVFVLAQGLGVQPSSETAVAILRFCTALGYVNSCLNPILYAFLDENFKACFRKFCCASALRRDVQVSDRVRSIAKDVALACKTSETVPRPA

`Cc1cc(O)cc(C)c1C[C@H](N)C(=O)N1CCC[C@@H]1C(=O)N[C@H]1Cc2ccccc2CN(CCC(=O)N[C@@H](CCCN2CCC(Cc3ccccc3)CC2)C(=O)N[C@@H](Cc2ccccc2)C(N)=O)C1=O` (H-[Dmt][dP][X1][Nva(5-(4-Bn-piperidin-1-yl))]F-NH2): the EC50 (in general, the concentration at which the effect is half-maximal) at Mu-type opioid receptor [1] is 0.008 µM; at Mu-type opioid receptor [3] it was “Not Active”. In addition, the Emax (commonly the size of the effect at its maximum, as opposed to the concentration needed) at Mu-type opioid receptor [2] turned out to be 50%. In addition, the Activity in [4] was 33%; in data set [5], 75%; in [6] it was 72%; in data set [7] it was 46%. The Ki – broadly, the equilibrium dissociation constant of an inhibitor or competing ligand from its target – in [8] is 1.19 µM; in [10] it was 0.029 µM. Besides, the Kb in data set [9] is 6.31 µM; in data set [11] it was 0.38 µM. The outcome (in data set [12]; in data set [13]; in the data set on Mus musculus [27]) was Active. The result in [14], in data set [15], in data set [16], in data set [17], in data set [18] and in data set [19] was inactive. Further, the outcome in data set [20] was inactive. Further, the highest level in data set [21] (Cmax) was 345 nM. For the same compound, the Tmax (in general, the time at which the peak concentration occurs) in [22] came out at 8.34 min. The half-life (commonly how long it takes for the measured level to halve) in data set [23] is 16.8 min. The same compound had a concentration at 2 h in data set [24] of 10.7 nM. Also, the Drug metabolism entry in [25] and in data set [26] was “Metabolite_Detected” each time.
For `COc1ccsc1CNCC[C@@]1(c2ccccn2)CCOC2(CCCC2)C1` [OLICERIDINE], the outcome in the data set on Mus musculus [28] and with Mus musculus [29] was inactive. In addition, the figures for the Activity result in data set [30], in data set [31] and in data set [32] were “Toxic”, “Toxic” and “Dose-Dependent Effect”, respectively.
